Test results taken from ChEMBL document CHEMBL5500369, “Design, synthesis, and biological evaluation of 5-(1H-indol-5-yl)isoxazole-3-carboxylic acids as novel xanthine oxidase inhibitors” (Eur J Med Chem, 2024).

Target: T1, Xanthine dehydrogenase/oxidase (Bos taurus, UniProt P80457)
Experiment: Inhibition of bovine xanthine oxidase using xanthine as substrate at 10.0 uM measured 30 secs interval for 5 mins by spectrophotometry relative to control
Conditions: cattle; call rule not given here

T1 sequence (P80457 whole entry): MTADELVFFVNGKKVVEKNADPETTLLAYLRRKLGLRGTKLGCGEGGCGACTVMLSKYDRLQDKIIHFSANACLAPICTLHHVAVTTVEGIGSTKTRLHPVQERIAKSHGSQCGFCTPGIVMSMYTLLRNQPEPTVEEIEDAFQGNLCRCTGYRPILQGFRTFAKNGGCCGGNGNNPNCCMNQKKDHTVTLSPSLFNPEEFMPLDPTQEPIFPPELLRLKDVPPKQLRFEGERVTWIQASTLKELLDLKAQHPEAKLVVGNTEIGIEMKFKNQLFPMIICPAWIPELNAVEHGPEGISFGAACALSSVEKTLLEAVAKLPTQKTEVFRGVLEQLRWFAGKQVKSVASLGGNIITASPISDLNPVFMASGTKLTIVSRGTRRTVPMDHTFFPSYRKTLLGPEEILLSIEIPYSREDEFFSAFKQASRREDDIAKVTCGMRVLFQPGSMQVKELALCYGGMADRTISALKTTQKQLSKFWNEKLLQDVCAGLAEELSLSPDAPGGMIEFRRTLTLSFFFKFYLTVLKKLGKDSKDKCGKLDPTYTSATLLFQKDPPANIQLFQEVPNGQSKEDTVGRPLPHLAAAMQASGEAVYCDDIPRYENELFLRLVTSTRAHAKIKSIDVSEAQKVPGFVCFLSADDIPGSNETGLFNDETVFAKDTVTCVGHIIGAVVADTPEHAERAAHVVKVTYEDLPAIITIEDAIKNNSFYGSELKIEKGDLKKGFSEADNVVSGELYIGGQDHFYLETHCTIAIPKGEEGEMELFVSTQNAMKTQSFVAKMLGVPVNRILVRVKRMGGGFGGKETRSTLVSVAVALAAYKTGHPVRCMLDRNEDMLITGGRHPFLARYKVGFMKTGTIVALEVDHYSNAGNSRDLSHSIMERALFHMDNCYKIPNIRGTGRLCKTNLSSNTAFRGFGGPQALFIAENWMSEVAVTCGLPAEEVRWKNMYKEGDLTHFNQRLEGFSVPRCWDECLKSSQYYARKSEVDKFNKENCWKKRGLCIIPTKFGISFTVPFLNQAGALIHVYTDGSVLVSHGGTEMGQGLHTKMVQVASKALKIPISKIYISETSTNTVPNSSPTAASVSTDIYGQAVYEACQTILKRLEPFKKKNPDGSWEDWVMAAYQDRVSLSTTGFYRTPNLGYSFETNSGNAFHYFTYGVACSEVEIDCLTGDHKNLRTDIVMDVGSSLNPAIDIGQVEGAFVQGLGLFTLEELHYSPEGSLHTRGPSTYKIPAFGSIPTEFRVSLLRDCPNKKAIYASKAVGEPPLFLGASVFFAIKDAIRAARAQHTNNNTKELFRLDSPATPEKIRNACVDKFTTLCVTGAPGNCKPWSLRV

Row | inhibition at 10 µM [%] | SMILES
1 | < 50 | CC(C)=Cn1ccc2cc(-c3cc(C(=O)O)no3)ccc21
2 | < 50 | CCOC(=O)c1cc(-c2ccc3c(c2)c(C#N)cn3C(C)C)on1

Target: T1, Xanthine dehydrogenase/oxidase
Experiment: Mixed type inhibition of bovine xanthine oxidase assessed as increase in Km with decrease in Vmax using xanthine as substrate at upto 0.30 uM by Lineweaver-Burk plot analysis
Conditions: cattle, 0.3 µM

Row | inhibition (INH) | SMILES
3 | Active | CC(C)n1cc(C#N)c2cc(-c3cc(C(=O)O)no3)ccc21

Target: T1, Xanthine dehydrogenase/oxidase
Experiment: Binding affinity to bovine xanthine oxidase assessed as inhibition constant
Conditions: not given

Row | Ki [nM] | SMILES
4 | 40 | CC(C)n1cc(C#N)c2cc(-c3cc(C(=O)O)no3)ccc21

Target: T1, Xanthine dehydrogenase/oxidase
Experiment: Potency index, ratio of Allopurinol IC50 to test compound IC50 for inhibition of bovine xanthine oxidase using xanthine as substrate by measuring uric acid formation measured 30 secs interval for 5 mins by spectrophotometry analysis
Conditions: cattle

Row | SMILES | Ratio IC50
5 | CC(C)n1cc(C#N)c2cc(-c3cc(C(=O)O)no3)ccc21 | 22

Target: not listed separately
Experiment: Binding affinity to bovine xanthine oxidase/xanthine substrate complex assessed as inhibition constant
Parameters: species or system Bos taurus
Conditions: not given

Row | Ki [nM] | SMILES
6 | 360 | CC(C)n1cc(C#N)c2cc(-c3cc(C(=O)O)no3)ccc21

Target: T1, Xanthine dehydrogenase/oxidase
Experiment: Inhibition of bovine xanthine oxidase using xanthine as substrate by measuring uric acid formation measured 30 secs interval for 5 mins by spectrophotometry analysis
Conditions: not given

Row | IC50 [nM] | SMILES
7 | 190 | CC(C)=Cn1cc(C#N)c2cc(-c3cc(C(=O)O)no3)ccc21
8 | 200 | N#Cc1cn(Cc2ccccc2Cl)c2ccc(-c3cc(C(=O)O)no3)cc12
9 | 3100 | N#Cc1c[nH]c2ccc(-c3cc(C(=O)O)no3)cc12
10 | 380 | CC(C)CCn1cc(C#N)c2cc(-c3cc(C(=O)O)no3)ccc21
11 | 560 | CCn1cc(C#N)c2cc(-c3cc(C(=O)O)no3)ccc21
12 | 260 | Cc1ccccc1Cn1cc(C#N)c2cc(-c3cc(C(=O)O)no3)ccc21
13 | 130 | CC(C)n1cc(C#N)c2cc(-c3cc(C(=O)O)no3)ccc21
14 | 240 | CC(C)Cn1cc(C#N)c2cc(-c3cc(C(=O)O)no3)ccc21
15 | 570 | CC#Cn1cc(C#N)c2cc(-c3cc(C(=O)O)no3)ccc21
16 | 390 | C=CCn1cc(C#N)c2cc(-c3cc(C(=O)O)no3)ccc21
17 | 600 | N#Cc1cn(Cc2ccc(F)cc2)c2ccc(-c3cc(C(=O)O)no3)cc12
18 | 1260 | N#Cc1cn(Cc2ccc(Cl)cc2)c2ccc(-c3cc(C(=O)O)no3)cc12
19 | 600 | CCCCCn1cc(C#N)c2cc(-c3cc(C(=O)O)no3)ccc21
20 | 320 | CCCn1cc(C#N)c2cc(-c3cc(C(=O)O)no3)ccc21
21 | 540 | CCCCn1cc(C#N)c2cc(-c3cc(C(=O)O)no3)ccc21
22 | 310 | N#Cc1cn(Cc2ccccc2F)c2ccc(-c3cc(C(=O)O)no3)cc12
23 | 270 | N#Cc1cn(CC2CCCC2)c2ccc(-c3cc(C(=O)O)no3)cc12
24 | 1170 | N#Cc1cn(Cc2ccc(Br)cc2)c2ccc(-c3cc(C(=O)O)no3)cc12
25 | 1290 | N#Cc1cn(Cc2cccc(F)c2)c2ccc(-c3cc(C(=O)O)no3)cc12
26 | 1840 | N#Cc1cn(Cc2cccc(Cl)c2)c2ccc(-c3cc(C(=O)O)no3)cc12
27 | 1030 | N#Cc1cn(Cc2ccccc2)c2ccc(-c3cc(C(=O)O)no3)cc12
28 | 250 | N#Cc1cn(C2CCC2)c2ccc(-c3cc(C(=O)O)no3)cc12
29 | 140 | N#Cc1cn(C2CCCC2)c2ccc(-c3cc(C(=O)O)no3)cc12
